Structures are written as SMILES.

A short description of this data set: gradient 5% acetonitrile 3 min, to 50% in 2 min, to 85% in 15 min, held 3 min, 100 µL/min. Conditions: column: Zorbax Extend-C18 2.1 x 50 mm; eluents: water / acetonitrile, 0.1% formic acid. The gist of the method:
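Mixtures of ~100 pure standards were chromatographed on a Zorbax Extend-C18 column (2.1 × 50 mm, 1.8 μm) at 100 μL/min using water and acetonitrile, each with 0.1% formic acid. Detection used a quadrupole time-of-flight mass spectrometer in positive and negative ionization mode, and data collection spanned 3 months. Retention time was obtained from adduct peaks picked computationally and each checked manually.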
On to `CN(C)C(=O)c1csc(S(=O)(=O)N2CCC(C(=O)NCc3cccnc3)CC2)c1`, for which the RP-LC retention time came to 579 s.
Next, `COc1ccc(C(=O)N2CCC3(CC2)NC(=O)c2cc(C)ccc2N3C)cc1OC`: 711 s; `COC(=O)C1=C(CN2CCCC2)NC(=O)NC1c1ccccc1C` (stereo not given): 588 s; `O=C(Cc1csc(Nc2ccc(Cl)cn2)n1)N1CCCc2ccccc21`: 919 s.
`CCOc1ccc(-c2noc(Cn3c(=O)n(-c4ccccc4F)c(=O)c4sccc43)n2)cc1OC` returned an RP-LC retention time of 945 s.
On to `Cc1ncoc1C(=O)N1CCC(c2noc(-c3ccncc3)n2)C1` (stereo not given), for which the RP-LC retention time is 642 s.
The molecule `O=C(CCCn1c(=O)c2cccn2c2ccc(F)cc21)N1CCCCCC1` had an RP-LC retention time of 934 s.
Next, `CCOc1ccc(NC(=O)c2cccn2-c2cccnc2)cc1`: 733 s; `CCCC1OC(c2cc3c(cc2Cl)OCO3)OCC1CC` (stereo not given): 1070 s.
The molecule `O=C(Nc1ccc(F)c(Cl)c1)c1cccn1Cc1noc(C2CC2)n1` came in with an RP-LC retention time of 998 s.
Next, `Cc1nc2ccn(Cc3ccco3)c(=O)c2cc1C(=O)NCCc1ccco1`: 720 s; `CCC(C)C(=O)N1CCCN(C2=NS(=O)(=O)C(c3ccc(F)cc3)=C2C)CC1` (stereo not given): 795 s; `O=C(NCC1CCOCC1)Nc1cc(F)cc(F)c1`: 703 s.
Next, `CCOc1ccc(Cc2nc(-c3ccc4oc(C)nc4c3)no2)cc1OCC`: 1040 s.
Next, `COC(=O)c1c(C)[nH]c(C(=O)N2CCC(CC(=O)NCc3cccc(F)c3)CC2)c1C`: 735 s.
`COc1ccc(C2CC(=O)Nc3c(C(=O)O)cn(-c4ccc(F)cc4)c32)cc1OC` (stereo not given) registered an RP-LC retention time of 734 s.
For `Cn1nc(-c2nc(C3CC3)no2)c2c1CCN(C(=O)NCc1ccccc1)C2`, the RP-LC retention time stood at 788 s.
The result for `COC(=O)c1ccc2c(=O)n(-c3ccc(C)c(F)c3)c(N3CCCC3)nc2c1` reads 1020 s.
The result for `Cc1cccc2c(C(=O)NC3CC3)cc(N(C)C)nc12` reads 588 s; that for `COCCNS(=O)(=O)c1cccc(-c2nc(-c3ccc(C)cc3)no2)c1`, 1060 s.
Consider `CCOc1cc(CNc2ccc3[nH]c(=O)[nH]c3c2)cc(Cl)c1OCC`, for which the RP-LC retention time came to 700 s.
Next, `CC(C)n1cc(C2=CCN(C(=O)NC3CCCCC3)CC2)c2cccnc21`: 945 s.
Next, `Cn1cccc1C(=O)C(=O)Nc1cccc(Br)c1`: 1040 s.
The result for `N#Cc1ccc(C(=O)N2CCN(c3cc(-c4cccs4)[nH]n3)CC2)cc1` reads 749 s; that for `O=C(Cc1ccccc1F)N1CCC(c2nc(-c3ccccc3)no2)C1` (stereo not given), 922 s; that for `Cn1cc(CN2CCC(C(=O)NCC3CCN(Cc4cccc(F)c4)CC3)CC2)c2ccccc21`, 572 s.
As to `CCOc1ccc(NC(=O)c2c(O)c3cccnc3n(-c3ccc(F)cc3)c2=O)cc1`, the RP-LC retention time was 1280 s.
`Cc1c(Cl)ccc2c(=O)c3c([nH]c12)CCN(CC(=O)Nc1ccc(Cl)c(F)c1)C3` had an RP-LC retention time of 646 s.
Turning to `CCC(C)OC(=O)c1[nH]c2c(c1C)C(=O)CC(c1ccc(N(C)C)cc1)C2` (stereo not given), the RP-LC retention time was determined as 764 s.
The result for `CC(C(=O)N1CCN(c2cc(-c3ccc(Cl)cc3)[nH]n2)CC1)c1ccccc1` (stereo not given) reads 921 s; that for `COc1cc(CN2CCc3nc(N4CCN(c5ccccn5)CC4)ncc3C2)cc(OC)c1OC`, 567 s; that for `CCCN(C)C(=O)C1CCN(c2cnn(Cc3ccccc3)c(=O)c2)CC1`, 728 s.
Next, `COCc1nnc(NC(=O)c2ccccc2OCc2nc(-c3ccc(C)cc3)no2)s1`: 1060 s; `Cn1cc(CC(=O)Nc2ccc(F)cc2)c2cccnc21`: 703 s; `O=C(CCn1nnc2cc(-c3noc(Cc4cccc(F)c4)n3)ccc21)N1CCCC1`: 855 s.
Next, `O=C(CCSc1nnnn1-c1ccccc1)Nc1ccc2c(c1)OCO2`: 794 s.
Molecule `O=C(NCC1CC1)c1sc2ncccc2c1-n1cccc1` registered an RP-LC retention time of 902 s.
Next, `CCn1cc(-c2ccncc2)cc1C(=O)NCc1ccc(Cl)cc1`: 679 s; `CC(C)Cn1ccc2c(cc(C(=O)Nc3ccc(Br)cc3)n2C)c1=O`: 979 s; `CCn1cc(CCN2CCN(C(=O)c3cccs3)CC2)c2cccnc21`: 589 s.
The result for `Cc1ccsc1C(=O)N1CCC(Nc2ncnc3c2CCC3)CC1` reads 778 s; that for `Cc1cc(OCC(=O)N2CCC3(O)CCCCC3C2)c2c3c(c(=O)oc2c1)CCC3` (stereo not given), 803 s; that for `CCNC(=O)N1CCCC1c1nc(-c2ccccc2OC)no1` (stereo not given), 698 s.
The molecule `Cc1sc(-c2noc(C3CCC3)n2)cc1S(=O)(=O)N1CCC(C(=O)NCC2CCCO2)CC1` (stereo not given) gave an RP-LC retention time of 937 s.
The result for `CCn1ccc(C(=O)N2CCCC2c2ccc(OC)cc2)n1` (stereo not given) reads 795 s; that for `O=c1cc(CN2CCN(c3ncccn3)CC2)nc2sccn12`, 542 s; that for `Cc1ccc2c(=O)c(C(=O)N3CCCCC3)cn(CC(=O)NC3CCCC3)c2n1`, 694 s.
Next, `CN(CCc1noc(COc2ccccc2)n1)C(=O)Nc1ccc(F)c(Cl)c1`: 966 s.
The result for `CCOc1ccc2cccc(NC(=O)Cc3cccs3)c2n1` reads 1130 s; that for `CCCC1CCC(C(=O)Nc2ccc3nc(N4CCN(c5ncccn5)CC4)cc(C)c3c2)CC1` (stereo not given), 878 s.
In the case of `CCOC(=O)C1CCc2sc(NC(=O)CCc3csc4nc(C5CC5)cn34)nc21` (stereo not given), the RP-LC retention time came out at 599 s.
For `Cc1ccc(Cl)cc1NC(=O)CN1CCN(Cc2ccc(F)cc2)C(=O)C1=O`, the RP-LC retention time turned out to be 804 s.
The result for `COc1ccc(NC(=O)Cn2c(=O)c3cc(-c4ccco4)nn3c3ncccc32)cc1Cl` reads 822 s; that for `O=C(c1c[nH]c2ccccc12)N1CCCCC1c1nc(C2CC2)no1` (stereo not given), 866 s; that for `CCC(=O)N1c2ccc(S(=O)(=O)CCC(=O)NC3CCN(Cc4ccccc4)CC3)cc2CC1C` (stereo not given), 640 s.
Next, `CCCC(=O)Nc1ccc2c(c1)CN(C(=O)c1ccc(F)c(Cl)c1)C(C(=O)N(C)C)C2` (stereo not given): 727 s; `O=C(NCc1ccccn1)C1CCCN(C(=O)NCc2cccs2)C1` (stereo not given): 550 s; `CC(C)NC(=O)c1ccc(OCC2CCN(C(=O)c3c(F)cccc3Cl)CC2)cc1`: 888 s.
The result for `O=C1CCN(C(=O)c2ccco2)CCCC(CO)CCN1` (stereo not given) reads 566 s; that for `CCC(=O)Nc1ccc2c(c1)CN(C(=O)c1ccccc1)C(C(=O)N1CCCC1)C2` (stereo not given), 667 s; that for `O=C(NCc1ccc(F)cc1)C1=C2CCCN2c2ccc(F)cc2S1(=O)=O`, 864 s.
`CCOc1nccnc1N1CCC(NS(=O)(=O)C2CC2)C1` (stereo not given) had an RP-LC retention time of 1230 s.
The result for `COCCCNC(=O)CN1CC2=C(C1=O)C(c1ccccc1Cl)NC(=O)N2C` (stereo not given) reads 570 s.
Next, `COc1ccc(C2CC(=O)N(c3ccc(F)c(C)c3)C(=O)C2)cc1`: 930 s; `Cc1c(C(=O)O)nnn1-c1ccc2c(c1)OCCO2`: 638 s; `CCN(Cc1ccccc1)C(=O)Cn1c(N2CCCC2)nc(C)cc1=O`: 660 s.
Next, `Cc1ccc(NC(=O)N2CCN(c3ccc(=O)n(-c4ccccc4)n3)CC2)cc1Cl`: 708 s; `COC(=O)c1cn(CC(=O)N2CCc3ccccc32)c2ccccc12`: 974 s.
As to `CCN1C(=O)NC(c2ccc(C)cc2C)C2=C1CN(CCC(=O)N1CCOCC1)C2=O` (stereo not given), the RP-LC retention time came out at 614 s.
The result for `CCC(CN(C)Cc1ccccc1)NS(=O)(=O)c1ccc2[nH]c(=O)ccc2c1` (stereo not given) reads 600 s; that for `Cc1cccc(-n2c(=O)c3c(cc(C)n3C)n(CC(=O)Nc3cc(Cl)ccc3C)c2=O)c1`, 960 s.
The result for `CCCn1c(=O)sc2cc(S(=O)(=O)N3CCC(C(=O)NCc4cccc(C)c4)CC3)ccc21` reads 975 s; that for `Nc1cc(C2CCN(C(=O)c3ccc(F)c(Cl)c3)CC2)no1`, 712 s.
Next, `COCCN1C(=O)c2cccn2CC1CNS(=O)(=O)c1ccc2c(c1)C(C)(C)C(=O)N2` (stereo not given): 652 s; `CC(NC(=O)c1ccc(OC(F)(F)F)cc1)C(=O)N1CCN(c2ccccn2)CC1` (stereo not given): 643 s.
`Cc1cc(C)cc(NC(=O)N2CCC(N3CCN(Cc4cccc(F)c4)C(=O)C3=O)CC2)c1`: the RP-LC retention time is 800 s.
The result for `COc1cccc(CCC(=O)N2CCc3nc[nH]c3C2)c1` reads 575 s; that for `CCCn1ncc(N2CCC(C(=O)Nc3ccc(OC)c(OC)c3)CC2)cc1=O`, 693 s; that for `COc1cccc(-n2c(CN3CCN(c4ccccn4)CC3)nc3ccc([N+](=O)[O-])cc3c2=O)c1`, 647 s.
Next, `COCC1CN(Cc2cn[nH]c2-c2ccccc2)CCC1(F)F` (stereo not given): 609 s.

The record behind these values is the METLIN SMRT retention time set (Domingo-Almenara et al. 2019).
